Test [1] concerns the target T1, wild-type human cardiac sodium channel, hNav1.5 (Homo sapiens, UniProt Q14524). As to the kind of experiment: Late INa screening assay (QPatch whole cell patch clamp, Tefluthrin-induced late current). It counts as cell-based. To be noted: HEK293 hNav1.5, percent block of late INa. Put shortly: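 HEK293 cells stably expressing hNav1.5 without beta subunits were whole-cell patch clamped at 23-25 °C, stepping from −120 to −20 mV for 250 ms at 0.1 Hz. Late current (240–265 ms) was induced with 10 μM Tefluthrin, and compounds were added typically at 0.3 or 1 μM. Percent block was taken against 0 Na baseline with rundown correction.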
A general note: In patch-clamp work, channel activity is measured electrically.

Test [2] concerns the target T1, wild-type human cardiac sodium channel, hNav1.5. The experiment in a line: Peak INa screening assay (tonic block and use-dependent block). It counts as cell-based. The method in brief: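 Whole-cell automated patch clamp, 23-25° C, on hNav1.5 alpha-only HEK293 cells with Na+ lowered to 40 mM by choline. Block measured after two additions of 1 or 3 μM compound and 200 s wait: tonic at 0.1 Hz, use-dependent at 50th pulse (−20 mV, 20 ms, 3 Hz) from −100 mV, relative to drug-free, rundown corrected.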

Setting [3] is: tonic block of Peak INa, 0.1 Hz, holding -100 mV, read-out: Peak TB 3 uM.
[4] abbreviates: use-dependent block of Peak INa, 3 Hz, pulse 50, read-out: Peak UDB 3 Hz 3 uM.

Where two headings read alike, the source gives them in different places.

T1 sequence (Q14524 whole entry): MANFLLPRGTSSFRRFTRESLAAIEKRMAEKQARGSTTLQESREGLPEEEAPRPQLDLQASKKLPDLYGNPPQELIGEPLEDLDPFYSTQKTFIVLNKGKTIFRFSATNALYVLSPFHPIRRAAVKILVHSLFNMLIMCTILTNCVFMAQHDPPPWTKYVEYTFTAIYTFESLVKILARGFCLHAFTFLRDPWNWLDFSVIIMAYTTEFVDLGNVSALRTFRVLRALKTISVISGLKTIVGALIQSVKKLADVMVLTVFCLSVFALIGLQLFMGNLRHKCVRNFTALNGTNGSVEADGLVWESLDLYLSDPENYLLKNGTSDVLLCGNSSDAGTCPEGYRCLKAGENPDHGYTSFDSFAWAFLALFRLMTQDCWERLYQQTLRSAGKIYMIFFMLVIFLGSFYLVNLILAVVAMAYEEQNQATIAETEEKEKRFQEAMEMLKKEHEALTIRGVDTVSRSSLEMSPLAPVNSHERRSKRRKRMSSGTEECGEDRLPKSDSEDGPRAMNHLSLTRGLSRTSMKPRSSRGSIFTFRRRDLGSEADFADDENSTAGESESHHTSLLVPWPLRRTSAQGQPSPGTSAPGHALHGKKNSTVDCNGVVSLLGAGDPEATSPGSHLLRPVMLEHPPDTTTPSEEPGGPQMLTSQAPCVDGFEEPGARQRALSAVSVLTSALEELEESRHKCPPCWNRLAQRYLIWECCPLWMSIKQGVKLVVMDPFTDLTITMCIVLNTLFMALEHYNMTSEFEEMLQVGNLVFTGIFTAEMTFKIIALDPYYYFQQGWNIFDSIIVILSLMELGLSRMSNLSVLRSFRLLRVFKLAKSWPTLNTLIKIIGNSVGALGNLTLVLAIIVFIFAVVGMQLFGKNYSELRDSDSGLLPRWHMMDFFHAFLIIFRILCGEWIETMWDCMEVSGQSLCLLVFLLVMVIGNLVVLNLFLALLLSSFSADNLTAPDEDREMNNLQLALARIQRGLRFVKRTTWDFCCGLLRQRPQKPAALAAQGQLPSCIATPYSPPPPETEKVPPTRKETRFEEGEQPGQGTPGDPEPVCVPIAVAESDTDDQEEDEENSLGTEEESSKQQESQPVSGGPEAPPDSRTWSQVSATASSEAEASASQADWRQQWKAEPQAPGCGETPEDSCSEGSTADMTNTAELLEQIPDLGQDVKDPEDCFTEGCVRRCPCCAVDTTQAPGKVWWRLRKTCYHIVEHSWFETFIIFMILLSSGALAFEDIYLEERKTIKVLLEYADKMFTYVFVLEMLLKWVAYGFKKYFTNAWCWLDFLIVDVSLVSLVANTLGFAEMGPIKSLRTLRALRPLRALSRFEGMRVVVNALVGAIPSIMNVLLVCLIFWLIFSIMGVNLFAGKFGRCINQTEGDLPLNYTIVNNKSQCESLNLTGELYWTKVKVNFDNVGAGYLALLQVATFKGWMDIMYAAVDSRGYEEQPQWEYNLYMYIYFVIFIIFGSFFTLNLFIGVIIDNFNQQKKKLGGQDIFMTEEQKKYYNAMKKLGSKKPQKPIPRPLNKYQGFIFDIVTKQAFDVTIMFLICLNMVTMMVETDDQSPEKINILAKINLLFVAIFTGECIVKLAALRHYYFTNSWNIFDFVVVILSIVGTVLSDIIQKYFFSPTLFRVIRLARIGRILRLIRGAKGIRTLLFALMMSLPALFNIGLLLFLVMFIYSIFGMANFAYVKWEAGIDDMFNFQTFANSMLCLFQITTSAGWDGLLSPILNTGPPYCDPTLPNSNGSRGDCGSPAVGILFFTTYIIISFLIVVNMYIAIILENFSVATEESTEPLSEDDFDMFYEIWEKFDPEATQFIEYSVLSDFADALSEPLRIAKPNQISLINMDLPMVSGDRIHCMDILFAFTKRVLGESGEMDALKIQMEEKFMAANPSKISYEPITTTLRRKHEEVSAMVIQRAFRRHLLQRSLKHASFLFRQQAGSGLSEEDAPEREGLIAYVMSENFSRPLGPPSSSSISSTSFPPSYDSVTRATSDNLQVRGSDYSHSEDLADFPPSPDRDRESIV

For the compound `CC(C)c1nnc(COc2noc3ccc(-c4ccc(OC(F)(F)F)cc4)cc23)o1` [Example 100, 3-((5-isopropyl-1,3,4-oxadiazol-2-yl)methoxy)-5-(4-(trifluoromethoxy)phenyl)benzo[d]isoxazole], in test [1], the inhibition at 0.3 µM is 31.7% and the inhibition at 1 µM turned out to be 61.9%. The inhibition at 3 µM in test [2] (setting [3]) was determined as 23.5%. Moreover, the inhibition at 3 µM in test [2] (setting [4]) was less than 5%.

`CN(C)c1noc2ccc(-c3ccc(OC(F)(F)F)cc3)cc12` [Example 133, N,N-dimethyl-5-(4-(trifluoromethoxy)phenyl)benzo[d]isoxazol-3-amine] showed an inhibition at 1 µM in test [1] of 45.8%. Also, the results for the inhibition at 3 µM in test [2] (setting [3]) and in test [2] (setting [4]) were 38.8% and 5.2%, respectively.

Consider `CC(=O)N1CC(COc2noc3ccc(-c4ccc(OC(F)(F)F)cc4)cc23)C1` [Example 110, 1-(3-(((5-(4-(trifluoromethoxy)phenyl)benzo[d]isoxazol-3-yl)oxy)methyl)azetidin-1-yl)ethan-1-one], for which, in test [1], the inhibition at 0.3 µM came out at 25.7% and the inhibition at 1 µM worked out at 62.7%. Besides, the inhibition at 3 µM in test [2] (setting [3]) turned out to be 14.5%. For the same compound, the inhibition at 3 µM in test [2] (setting [4]) was 11.5%.

In test [1], `Cc1nnc(COc2noc3c(F)cc(-c4ccc(OC(F)(F)F)cc4)cc23)o1` [Example 155, 7-fluoro-3-((5-methyl-1,3,4-oxadiazol-2-yl)methoxy)-5-(4-(trifluoromethoxy)phenyl)benzo[d]isoxazole] came in with an inhibition at 0.3 µM of 47% and an inhibition at 1 µM of 69.2%. In addition, the inhibition at 3 µM in test [2] (setting [3]) came to 24.8%. Besides, the inhibition at 3 µM in test [2] (setting [4]) came out at 8.4%.

Turning to `CC(=O)N1CCOC[C@@H]1COc1noc2ccc(-c3ccc(OC(F)(F)F)cc3)cc12` [Example 116, (R)-1-(3-(((5-(4-(trifluoromethoxy)phenyl)benzo[d]isoxazol-3-yl)oxy)methyl)morpholino)ethan-1-one], in test [1], the inhibition at 1 µM came out at 48.3%. Moreover, the inhibition at 3 µM in test [2] (setting [3]) is 28.9%; in test [2] (setting [4]), 15%.

In turn, `FC(F)(F)Oc1cccc(-c2ccc3onc(OCc4ncccn4)c3c2)c1` [Example 10, 3-(pyrimidin-2-ylmethoxy)-5-(3-(trifluoromethoxy)phenyl)benzo[d]isoxazole] displayed an inhibition at 1 µM in test [1] of 41%. Besides, the inhibition at 3 µM in test [2] (setting [3]) stood at 16.4%; in test [2] (setting [4]) it was 5.7%.

`O=C(COc1noc2ccc(-c3ccc(OC(F)(F)F)cc3)cc12)N1CCCC1` [Example 121, 1-(pyrrolidin-1-yl)-2-((5-(4-(trifluoromethoxy)phenyl)benzo[d]isoxazol-3-yl)oxy)ethan-1-one]: in test [1], the inhibition at 0.3 µM worked out at 39% and the inhibition at 1 µM was 77.7%. Besides, the inhibition at 3 µM in test [2] (setting [3]) turned out to be 79%. Also, the inhibition at 3 µM in test [2] (setting [4]) turned out to be 23.4%.

In test [1], `Cc1nnc(C(C)Oc2noc3ccc(-c4ccc(OC(F)(F)F)cc4)cc23)o1` (stereo not shown) [Example 153, 3-(1-(5-methyl-1,3,4-oxadiazol-2-yl)ethoxy)-5-(4-(trifluoromethoxy)phenyl)benzo[d]isoxazole] yielded an inhibition at 0.3 µM of 51.3% and an inhibition at 1 µM of 67.6%. Also, the inhibition at 3 µM in test [2] (setting [3]) amounted to 57.6%.

In test [1], `C[C@@H](N)COc1noc2ccc(-c3ccc(OC(F)(F)F)cc3)cc12` [Example 117, (R)-1-((5-(4-(trifluoromethoxy)phenyl)benzo[d]isoxazol-3-yl)oxy)propan-2-amine] had an inhibition at 0.3 µM of 39.4% and an inhibition at 1 µM of 78.1%. Moreover, in test [2] (setting [3]), the inhibition at 3 µM stood at 79.3%. The inhibition at 3 µM in test [2] (setting [4]) is 60.8%.

As for `CC(=O)N1CCOC[C@H]1COc1noc2ccc(-c3ccc(OC(F)(F)F)cc3)cc12` [Example 115, (S)-1-(3-(((5-(4-(trifluoromethoxy)phenyl)benzo[d]isoxazol-3-yl)oxy)methyl)morpholino)ethan-1-one], in test [1], the inhibition at 0.3 µM came out at 23.5%. In test [1], this compound gave an inhibition at 1 µM of 56.7%. In addition, the inhibition at 3 µM in test [2] (setting [3]) was determined as 19.8%; in test [2] (setting [4]) it was 18.3%.

In the case of `N#CCOc1noc2ccc(-c3ccc(OC(F)(F)F)cc3)cc12` [Example 103, 2-((5-(4-(trifluoromethoxy)phenyl)benzo[d]isoxazol-3-yl)oxy)acetonitrile], the inhibition at 1 µM in test [1] turned out to be 38.9%. For the same compound, the inhibition at 3 µM in test [2] (setting [3]) is 18.8%; in test [2] (setting [4]) it was less than 5%.

As to `CC(COc1noc2ccc(-c3ccc(OC(F)(F)F)cc3)cc12)n1cccn1` (stereo not shown) [Example 68, 3-(2-(1H-pyrazol-1-yl)propoxy)-5-(4-(trifluoromethoxy)phenyl)benzo[d]isoxazole], in test [1], the inhibition at 0.3 µM was 35.8%. In addition, the inhibition at 1 µM in test [1] came out at 62.2%. In addition, the inhibition at 3 µM in test [2] (setting [3]) was 10.5%; in test [2] (setting [4]), less than 5%.

Values taken from US9416115B2, “Fused heterocyclic compounds as ion channel modulators” (Gilead Sciences, Inc., priority 2013, dated 2016).
